Measured values reported in patent publication US20100239568A1, “DIAGNOSTICS AND TREATMENTS FOR TUMORS” (GENENTECH, INC., priority 2006, published 2010).

Tests used:
B16F1 tumors = assay: Tumor growth of B16F1 tumors in mice; assay type: in vivo, mouse; details: B16F1 in C57BL/6; compared to anti-VEGF treatment; day 17
Protocol: (§1) Cell Lines. The EL4, LLC, B16F1 and TIB6 (J558) tumor cell lines were obtained from American Type Culture Collection (ATCC) and maintained in tissue culture in high glucose Dulbecco's Modified Medium (DMEM) and supplemented with 10% fetal bovine serum (FBS) and 2 mM glutamine. The terms “B16F1” and “B16” are used interchangeably herein to refer to the same melanoma cell line.
(§2) Antibodies. Anti-VEGF, such as G6-23, is an antibody that binds to and neutralizes murine and human forms of VEGF. Derived from phage display technology, the IgG portion comprised murine isotype IgG2a (see, e.g., Malik, A. K. et al. Redundant roles of VEGF-B and P1GF during selective VEGF-A blockade in mice. Blood 107:550-7 (2006)) and was dosed at 10 mg/kg, IP, twice weekly unless indicated otherwise. Isotype-matched control antibody was anti-human ragweed-IgG2a (Genentech, Inc.). Anti-CD11b+ antibody (eBioSciences), anti-L-selectin (BD BioSciences) and anti-CXCR4 (Torrey Pines Lab) were used in FACS experiments. […] Tumor measurement was performed twice/week and terminal tumor weights were determined as described above. […]
(§3) B16F1 admixing experiments. […] Tumor size was assessed using Vernier calipers 2-3 times per week after tumors reached a palpable size. Tumor volume was determined using the Pi/6×L×W×W formula with L as the longest diameter and W the diameter at the position perpendicular to L. […]

CD11b+Gr1+ cells = assay: Flow cytometry of myeloid cells in tumor, bone marrow and peripheral blood of treated mice; assay type: in vivo, mouse; details: for CD11b+Gr1+ cells in B16F1 tumors after chemotherapy: tumor isolates after 17 days
Protocol: Flow cytometry. Tumors of control and anti-VEGF-treated mice were isolated and single cell suspension was generated by chopping of tumor tissues followed by treatment with a cell homogenizer (VWR). BMMNCs were flushed from femur and tibia of implated animals and underwent RBC lysis using ACK lysis buffer (Cambrex, Mass.). Peripheral blood was collected by retro-orbital bleed and 40 μl of peripheral blood was pre-treated with ACK buffer for red blood cells lysis.
Cells from BM, tumor or peripheral blood were stained with a series of monoclonal antibodies including, CD11b, Gr1, CD19, CD90, VEGFR2, CXCR4, L-Selectin2 (all from BD BioSciences, CA), VEGFR1 (R&D, CA), Tie2 (eBioSciences, CA) along with appropriate isotype control to investigate the myeloid and lymphoid fractions in each compartment. FACS data were acquired on FACS calibur and analyzed by Cell Quest Pro software (BD Biosciences).
To isolate GFP+ cells and/or CD11b+Gr1+, single cell suspension was provided from the bone marrow or tumors of implanted mice. Cells and were stained with anti-CD11b conjugated to APC and anti-Gr1 conjugated to PE. Populations of GFP, GFP−, CD11b+Gr1+ and CD11b−Gr1− cells were isolated in a FACS Vantage machine and post-sort analysis ensured the purity of the population of interest in each compartment.

TIB6 tumors = assay: Tumor growth of TIB6 tumors in mice; assay type: in vivo, mouse; details: TIB6 in C57BL/6; 5FU 50 mg/kg once a week, Gemcitabine 120 mg/kg twice a week, IP; day 17
Protocol: as §1
Antibodies. Anti-VEGF, such as G6-23, is an antibody that binds to and neutralizes murine and human forms of VEGF. Derived from phage display technology, the IgG portion comprised murine isotype IgG2a (see, e.g., Malik, A. K. et al. Redundant roles of VEGF-B and P1GF during selective VEGF-A blockade in mice. Blood 107:550-7 (2006)) and was dosed at 10 mg/kg, IP, twice weekly unless indicated otherwise. Isotype-matched control antibody was anti-human ragweed-IgG2a (Genentech, Inc.). […] Tumor measurement was performed twice/week and terminal tumor weights were determined as described above.
B16F1 admixing experiments. […] Tumor size was assessed using Vernier calipers 2-3 times per week after tumors reached a palpable size. Tumor volume was determined using the Pi/6×L×W×W formula with L as the longest diameter and W the diameter at the position perpendicular to L.
Chemotherapy. […] Tumor volume was measured twice a week and was calculated as described.

LLC tumors = assay: Tumor growth of LLC tumors in mice; assay type: in vivo, mouse; details: LLC in C57BL/6; 5FU 50 mg/kg once a week, Gemcitabine 120 mg/kg twice a week, IP; day 17
Protocol: as §1, §2, §3

EL4 tumors [1] = assay: Tumor growth of EL4 tumors in mice; assay type: in vivo, mouse; details: EL4 in C57BL/6; 5FU 50 mg/kg once a week, Gemcitabine 120 mg/kg twice a week, IP; day 17
Protocol: as §1, §2, §3

EL4 tumors [2] = assay: In vivo treatment with clodronate liposomes and anti-VEGF, EL4 tumor volume; set-up: species or system mouse; details: mice bearing resistant tumors
Protocol: In vivo treatment to examine for macrophage depletion and tumor expression: EL4, the murine lymphocyte leukemia cell line, was used. Treatment was started 48 hours after implanting EL4 tumor cells (5×10^6, 0.1 ml vol. in matrigel) in nude mice. Treatment was as follows: Group 1: 8 mice, twice a week PBS-liposome 200 μl IV and Ragweed IgG 2×5 mg/kg/week 100 μl ip.; Group 2: 8 mice, twice a Week: PBS-liposome 200 μl IV and G6-31 2×5 mg/kg/week 100 μl ip.; Group 3: 8 mice, twice a week: Clodronate-liposome 200 μl IV. Ragweed IgG 2×5 mg/kg/week 100 μl ip.; Group 4: 8 mice twice a week: Clodronate-liposome 200 μl IV. G6-31 2×5 mg/kg/week 100 μl ip. Group 5: 8 mice twice a week: Clodronate-liposome 200 μl Iv. PBS twice a week 100 μl ip. 3 mice of each group were pre-bled for 50 μl of whole blood for FACS macrophage cell population evaluation. 3 mice of each group were bled (optical) for 100 μl of whole blood at 1 hour after each PBS-liposome or Clodronate-liposome injection for FACS analysis. The study continued until sufficient tumor growth (not beyond 5 weeks). Tumor growth was defined as sufficient if a tumor was greater than 20 mm in length. Tumor size was measured weekly (1×w×h). […] At the endpoint of the experiment the animals were sacrificed, the tumors, measured one final time then extracted, weighed and then fixed. […]

HUVEC cells = assay: Angiogenic sprouting and capillary lumen formation assay; assay type: cell-based, human; details: 1.25 μg/ml with D551 fibroblasts, day 10
Protocol: See FIG. 13, Panel A and Pane B on day 10. In the assays, HUVEC cells were thawed at low passage number a day before the cells were coated on beads. The cells were detached at about 80% confluency and coated on cytodex microbeads (a cross-linked dextran matrix) with HUVEC (400 cells/bead) for 4 hours at 37° C. Beads and free HUVEC cells were transferred to a flask and cultured overnight. The beads were detached and they were mixed with fibrinogen (bovine plasma) (250 μg/ml). Fibrinogen was then converted to insoluble fibrin gel by adding thrombin. There are about 100 beads/12-well plate. The beads were cultured with 40,000 D551 fibroblasts and VEGF as positive controls, D551 or VEGF as negative controls, MCP-1 and D551, or MIP-1alpha and D551. The media was changed everyday. The cultures were stained with biotinylated anti-human CD31 and Cy3 streptavidin overnight with extensive washes. Pictures were taken at 60 hours, 6 days and 10 days.

[3] = system: human cancers, including renal and ovarian carcinomas; details: clinical evaluation; cited from earlier work
xenograft models = details: most xenograft models tested; cited from earlier work

Molecule	tumor response to chemotherapy (tumor volume) (B16F1 tumors)	CD11b+Gr1+ cells in B16F1 tumors after chemotherapy (CD11b+Gr1+ cells)	tumor response to chemotherapy (tumor volume) (TIB6 tumors)	tumor response to chemotherapy (tumor volume) (LLC tumors)	tumor response to chemotherapy (tumor volume) (EL4 tumors [1])	angiogenic activity (sprouting and capillary lumen formation) (HUVEC cells)	other results
O=c1[nH]cc(F)c(=O)[nH]1 [5FU, 5-Fluorouracil]	resistance	lack of CD11b+Gr1+ cells	completely sensitive	complete response	complete response	–	BM CD11b+Gr1+ cells after chemotherapy (CD11b+Gr1+ cells; bone marrow, all tumor types): complete exhaustion
Nc1ccn([C@@H]2O[C@H](CO)[C@@H](O)C2(F)F)c(=O)n1 [Gemcitabine]	resistance	lack of CD11b+Gr1+ cells	completely sensitive	partial resistance	partial resistance	–	–
O=P(O)(O)C(Cl)(Cl)P(=O)(O)O [clodronate]	–	–	–	–	–	–	efficacy of anti-VEGF treatment after depletion of TAMs (EL4 tumors [2]): improved
MCP-1: monocyte chemoattractant protein-1	–	–	–	–	–	angiogenic activity	–
bevacizumab: humanized anti-VEGF monoclonal antibody	–	–	–	–	–	–	single-agent activity [3]: significant single-agent activity; tumor growth and tumor angiogenesis (xenograft models): significantly inhibited tumor growth and reduced tumor angiogenesis
MIP-1alpha: macrophage inflammatory protein-1a (protein, UniProt P10147 24-92, looked up) C-C motif chemokine 3: SLAADTPTACCFSYTSRQIPQNFIADYFETSSQCSKPGVIFLTKRSRQVCADPSEEWVQKYVSDLELSA	–	–	–	–	–	angiogenic activity	–
